# Data published in EP2210604A1, “PHARMACEUTICAL COMPOSITIONS COMBINING A NONSTEROIDAL ANTI-INFLAMMATORY AGENT AND A XANTHINE OXIDASE INHIBITING AGENT, WHICH CAN BE USED TO CONTROL AND TREAT GOUT, GOUTY ARTHRITIS AND RELATED DISEASES” (Espinosa Abdala, Leopoldo de Jesús, priority 2007, dated 2009).
# Columns and labels:
# [1] = system: arthritic pain model in rat; assay: PIFIR model: uric acid-induced arthritic pain model in rat, antinociceptive activity; settings: oral; for DE50: dose causing 50% of maximum possible effect, drug alone
# Method: An arthritic pain model in rat was determined for said purpose. Data were interpreted by a Surface Synergistic Interaction analysis (ISS) and an isobolographic analysis to determine the interaction nature. ISS was calculated from the total antinociceptive effect produced by the combination after subtracting the antinociceptive effect produced by drug separately.
# For this study Wistar female rats were used [Crl (WI) BR] weighing between 180 to 200 gr. […] Number of animals in experiment was kept minimal and animals were kept in a room with climate and light control with a 12-hour light/dark cycle.
# At the completion of study rats were sacrificed.
# Animals were anesthesized with ether in a chamber (Pyrex glass dryer with ether vapor). Nociception was induced through a 0.05 mL uric acid intraarticular (ia) injection suspended in mineral oil in knee joint from right back leg. The suspension was prepared by milling 3.0 g. of uric acid with 10 mL of mineral oil in a glass mortar with pestle (Pyrex). Intraarticular injection was carried out through patellar ligament using a 1 mL glass syringe (Beckton Dickinson LTA, Brazil) with a 5 mm 24-gauge needle. An electrode was implanted immediately after to the plantar surface of each back claw between plantar pads. […] Contact time between each electrode from rat limb and cylinder was registered. […] This time was determined as zero time for measuring antinociceptive effects; these effects were measured every 30 minutes during the following 4 hours. This allowed determining the time course for antinociceptive effects in the same animal. Antinociception was considered as a recovery of contact time. Data are expressed as Functionality percentage index (IF%, that is, contact time on injected leg by the contact time in left leg, control, multiplied by 100). For the purpose of this study, nociception induction in experimental animals was unavoidable. However, care was taken to prevent an unnecessary suffering. All experiments were performed between 7:00 am and 2:00 pm.
# Study data, tables and figures are expressed as IF%. Curves for IF% vs time were prepared for each treatment and the corresponding course time was obtained. Antinociception was estimated as a recovery of IF%. Accumulated antinociceptive effect during the whole observation period (4 hours) was determined as the area below the curve (ABC) from time course to obtain a dose-response curve and for analyzing the total antinociceptive effect obtained by analgesic agent whether alone or in combination.
# ABC was calculated for each drug combination and for each of the components. […] If the […] ABC was higher than the theoretical sum, the result was considered enhancement; when it was similar to the theoretical sum then was determined to show additive antinociceptive effects. […] All values for each treatment are average ± S. E. M., for six animals. ABC values for drug combinations were compared with expected values using the Student test.
# Doses which caused 50% of maximum possible effect (DE50) of each drug were calculated by performing a linear regression analysis of the linear portion from dose-response curves. The isobologram was prepared by using the DE50 when drugs were delivered alone or in combination. […] DE50 value from combination total dose was calculated from the dose-response curve of combined drugs. Statistical significance between additive theoretical point and DE50 experimental value was validated by using the Student test.
# [2] = cited from earlier work
# [3] = system: patients with Gouty arthritis; assay: Clinical study (Phase I): combination of Allopurinol/Meloxicam vs independent delivery, 52 weeks follow-up; format: in vivo; settings: for Uric Acid Average, baseline / Uric Acid Average, at the end of study: Allopurinol 300 mg per day, Meloxicam 15 mg per day, or combination 300 mg/15 mg, n=50 per group; for Uric Acid Average, at the end of study: end of study (52 weeks)
# Method: A clinical study was carried out assessing the efficacy of a combination of Allopurinol/Meloxicam vs independent delivery of Allopurinol and Meloxicam in patients with Gouty arthritis.
# There were 150 patients with gout and with uric acid levels at least of 8 mg/dL randomly selected for this study.
# Main validation criterion was uric acid concentration of 6 mg/dL, in the last 3 monthly determinations. Secondary validation criteria included a reduction of incidence in gout worsening events.
# [4] = system: plasma proteins; settings: cited from earlier work
smiles,measurement,setting,value
Oc1ncnc2[nH]ncc12 [Allopurinol],ABC,"[1]; Allopurinol 10.0 mg/kg alone, 4 hours",22.5 ± 9.3 au
same,ABC,"[1]; Allopurinol 17.78 mg/kg alone, 4 hours",58.2 ± 23.7 au
same,antinociceptive efficacy (ABC),"[1]; Allopurinol 56.23 mg/kg, 4 hours",207.7 ± 24.7 au
same,side effects in animals,[1]; Allopurinol at 100 mg/kg,did not cause side effects
same,walking capability of treated rats,"[1]; Meloxicam 0.18-5.62 mg/kg, Allopurinol 3.16-56.23 mg/kg",did not affect the walking capability
same,DE50,[1],44.29 ± 0.06 mg/kg
same,ingested drug excreted in stools,[2]; in vivo,About 20%
same,global incidence of acute events,"[3]; along 9 to 52 weeks, comparison between groups",similar
same,"Uric Acid Average, baseline",[3],9 mg/dL
same,"Uric Acid Average, at the end of study",[3],7 mg/dL
same,adverse events reported (gastrointestinal upset),"[3]; number of events per group of 50 patients, 52 weeks",Six
Cc1ccc(-c2cc(C(F)(F)F)nn2-c2ccc(S(N)(=O)=O)cc2)cc1 [Celecoxib],time to maximum plasma levels,[2]; after oral dose,about 3 hours
same,dose recovered in feces,[2]; as metabolites,57%
same,dose recovered in urine,[2]; as metabolites,27%
same,half-life,[2]; clearance half-life,about 11 hours
same,Plasmatic clearance,[2]; in vivo,about 500 mL/min
same,distribution volume,[2]; in vivo,about 400 L
Cc1cnc(NC(=O)C2=C(O)c3ccccc3S(=O)(=O)N2C)s1 [Meloxicam],ABC,"[1]; Meloxicam 0.32 mg/kg alone, 4 hours",65.0 ± 9.6 au
same,ABC,"[1]; Meloxicam 0.56 mg/kg alone, 4 hours",98.7 ± 15.5 au
same,ABC,"[1]; Meloxicam 1.78 mg/kg alone, 4 hours",279.0 ± 15.5 au
same,antinociceptive efficacy (ABC),"[1]; Meloxicam 2.16 mg/kg (so in the source), 4 hours",295.8 ± 14.9 au
same,antinociceptive effect (ABC),"[1]; Meloxicam 3.16 mg/kg (maximum used dosage), 4 hours",295.8 ± 14.9 au
same,DE50,[1],0.86 ± 0.10 mg/kg
same,adherence with plasma proteins,[4],> 99%
same,bioavailability,[2]; oral,89%
same,"Uric Acid Average, baseline",[3],10 mg/dL
same,"Uric Acid Average, at the end of study",[3],9 mg/dL
